For experiment [1], the system named is DNA-PK substrates (DNA-PKcs Thr2609, Histone H2AX Ser139) in PEO1 cells. The experiment can be described thus: Immunoblotting for phosphorylation of DNA-PK substrates. In kind it is cell-based. Conditions: 72 hours. On the procedure:
(§1) FIG. 2. DNA-PK is activated following PARP inhibitor exposure in PEO1 cells. (A) Western blots for poly(ADP-ribose) polymer (pADPr) and phosphorylation of DNA-PK substrates (DNA-PKcs autophosphorylation at Thr^2609 and Histone H2AX at Ser^139) in PEO1 cells following 72 hours exposure to increasing concentrations of ABT-888 (0, 0.625, 1.25, 2.5, 5, 10, 20, and 40 μM). Hsp90, total DNA-PKcs, and Histone H1 are used as loading controls. (B) Phosphorylation of DNA-PK substrates after treatment for 72 hours with diluent (0.2% DMSO, lanes 1 and 4), 500 nM DNA-PK inhibitor AZ12594248 (DNA-PKi, lanes 2 and 5), or 5 μM ATM inhibitor KU55933 (ATMi, lanes 3 and 6) alone (lanes 1-3) or in combination with 20 μM ABT-888 (lanes 4-6). (C) Quantitation of cells positive for phospho-H2AX foci in PEO1 and PEO4 cells, following treatment with DMSO, 500 nM DNA-PKi, 20 μM ABT-888 (ABT), ABT-888 and DNA-PKi, 50 μM Etoposide (Etop), or 5 Gy ionizing radiation (IR). Cells were exposed to ABT-888 and/or DNA-PKi for 72 hours, etoposide for 1 hour, or allowed to recover for 1 hour after IR. Results are reported as mean±SEM of 3 independent experiments. (D) Confocal images of PEO1 cells treated as in […]. Phospho-Ser^139-H2AX is shown in green, phospho-Thr^2609-DNA-PKcs in red, and Hoechst 33258 in blue.
Cells were washed twice with calcium- and magnesium-free Dulbecco's phosphate-buffered saline (PBS) and solubilized in 6 M guanidine hydrochloride containing 250 mM Tris-HCl, pH 8.5 at 20° C., 10 mM EDTA, 1% (v/v) 2-mercaptoethanol, and 1 mM freshly added phenylmethylsulfonyl fluoride. After preparation for electrophoresis as described elsewhere (Kaufmann et al., Blood, 89:2098-2104 (1997)), aliquots containing 50 μg of protein (determined by the bicinchoninic acid method—S10) were separated on SDS-polyacrylamide gels containing 8% (w/v) acrylamide, electrophoretically transferred to nitrocellulose, and probed with immunological reagents as described elsewhere (Kaufmann, Anal. Biochem., 296:283-286 (2001)). […]

Experiment [2] has as its system phospho-H2AX and phospho-DNA-PKcs foci in PEO1 cells. The experiment can be described thus: Immunofluorescence / confocal foci in PEO1 cells. In kind it is cell-based. How it is done:
as §1
FIG. 8. PARP inhibition induces phosphorylation of DNA-PKcs selectively in PEO1 cells. (A) Quantitation of PEO1 cells positive for phospho-Ser^2056 DNA-PKcs foci following 72 hours exposure to increasing concentrations of ABT-888. (B) Quantitation of PEO1 cells positive for phospho-Ser^2056 DNA-PKcs foci following 72 hours exposure to diluent (0.2% DMSO), 500 nM DNA-PKi, 5 μM ATMi alone (columns 1-3) or with 20 μM ABT-888 (columns 4-6). (C) Representative confocal images of PEO1 cells from (B). Phospho-H2AX is shown in green, phospho-Thr^2609 DNA-PKcs in red, and Hoechst 33258 in blue. Results in (A) and (B) are presented as means±SEM of 3 independent experiments.
FIG. 9. siRNA-mediated knockdown of NHEJ components reduces ABT-888 induced formation of phospho-H2AX foci. PEO1 cells, following siRNA-mediated knockdown of Ku80 (A) or Artemis (B), were exposed to either diluent (0.1% DMSO) or 20 μM ABT-888 for 72 hours, fixed, and stained for phospho-H2AX foci. Positive nuclei were defined as having >10 foci. Results are presented as means±SEM of 3 independent experiments. […]
Coverslips were then washed three times with PBS and incubated for 1 h with Alexa Fluor 488- and/or 568-conjugated secondary antibody (Invitrogen) diluted 1:1000. […] Phospho-H2AX positive cells (defined as having >10 foci/cell) were counted on a Zeiss Axioplan microscope. […] Quantitation and image processing were performed using the Zeiss Zen software package and Adobe Photoshop CS3.

`C[C@]1(c2nc3c(C(N)=O)cccc3[nH]2)CCCN1` [ABT-888]: the “phosphorylation of DNA-PKcs at Thr2609 and H2AX at Ser139” value in experiment [1] (ABT-888 0-40 μM) is recorded as “phosphorylated in a dose-dependent manner”. The phospho-H2AX foci entry in experiment [2] (20 μM ABT-888, 72 hours) is recorded as “induced phospho-H2AX foci”. For the same compound, the “DNA-PKcs autophosphorylation at Ser2056” value in experiment [2] (72 hours) is given as “increased”. Moreover, the “ABT-888 induced phospho-H2AX foci after downregulation of Ku80 or Artemis” value in experiment [2] (siRNA knockdown, 20 μM ABT-888, 72 hours) is recorded as “reduced ABT-888 induced phospho-H2AX foci”.

In the case of `CCN1CCN(CC(=O)Nc2ccc(-c3cccc4c(=O)cc(N5CCOCC5)oc34)c3sc4ccccc4c23)CC1` [AZ 12594248], the “effect on ABT-888-induced phosphorylation of DNA-PKcs and H2AX” value in experiment [1] (with 20 μM ABT-888, 500 nM DNA-PKi or 5 μM ATMi) was “prevented the ABT-888-induced phosphorylation of DNA-PKcs and H2AX”. Further, the “effect on ABT-888-induced formation of foci and phosphorylation of DNA-PKcs” value in experiment [2] (500 nM DNA-PKi with 20 μM ABT-888, 72 hours) is “reduced”.
